Columns and labels:
[1] = test system: HT29 cells; assay: Annexin V-FITC/PI apoptosis assay, HT29; conditions: HT29, 24 h, 200 µM; for ∑apoptotic cells [%]: sum of early and late
[2] = test system: IMR-90 human lung fibroblasts; assay: MTT cytotoxicity assay, IMR-90 fibroblasts; type: cell-based; conditions: exposure time 96 h, mean ± SD
Experimental: (§1) CH1/PA-1 (ovarian teratocarcinoma), SW480 (colon carcinoma) and A549 (non-small cell lung cancer) cells were maintained as described in the reference. IMR-90 human fetal lung fibroblasts (from the European Collection of Authenticated Cell Cultures, Porton Down, Salisbury, UK) were cultured in Stable Cell^TM DMEM/F12 supplemented with 0.01 mg/mL human recombinant insulin (both purchased from Sigma-Aldrich) and 10% fetal bovine serum (FBS, BioWest, Nuaillé, France). Human colon carcinoma cell lines HCT116 and HT29 (both kindly provided by the Institute of Cancer Research, Department of Medicine I, Medical University of Vienna, Austria) were cultured in McCoy’s 5a medium supplemented with 4 mM L-glutamine (both purchased from Sigma-Aldrich) and 10% FBS. MCF-7 human breast adenocarcinoma cells (kindly provided by M. Ogris, Department of Pharmaceutical Sciences, University of Vienna, Austria) were maintained in DMEM (high glucose) supplemented with 4 mM L-glutamine, 0.1 mg/mL human insulin (all purchased from Sigma-Aldrich) and 10% FBS. All cell lines were grown as monolayers in 75 cm^2 culture flasks (CytoOne, Starlab, Hamburg, Germany) at 37 °C in a humidified atmosphere containing 5% CO2.
(§2) Exponentially growing cells were plated into 96-well microculture plates (CytoOne, tissue culture treated, Starlab, Hamburg, Germany) in densities of 1 × 10^3 CH1/PA-1, 2 × 10^3 SW480, 3 × 10^3 A549 and 7 × 10^3 IMR-90 cells per well (each in 100 µL). After a 24 h preincubation, drugs were added in serial dilution to give a final volume of 200 µL/well and exposed for 96 h. At the end of the exposure, the drug solutions were replaced by 100 µL RPMI 1640/MTT mixture (7:1 ratio). MTT (3-(4,5-dimethylthiazol-2-yl)-2,5-diphenyl-2H-tetrazolium bromide), (Acros Organics, Geel, Belgium) solution was prepared in phosphate-buffered saline (5 mg/mL) and mixed with RPMI1640 medium supplemented with 4 mM L-glutamine (both from Sigma-Aldrich) and 10% FBS. After 4 h incubation, the formazan crystals were solubilized in 150 µL of DMSO per well. Absorbance was measured at 550 nm (and at 690 nm as a reference) with a microplate reader (ELx808, BioTek, Winoosky, VT, USA) and Gen5^TM 3.08 software (BioTek). The 50% inhibitory concentrations (IC50) relative to untreated controls were interpolated from concentration-effect curves. At least three biologically and technically independent experiments were performed.

[3] = test system: CH1/PA-1 (ovarian teratocarcinoma) cells; assay: MTT cytotoxicity assay, CH1/PA-1 monolayer; type: cell-based, human; conditions: exposure time 96 h, mean ± SD
Experimental: as §1, §2

[4] = test system: HCT116 multicellular tumor spheroids; assay: Resazurin assay, HCT116 3D spheroids; type: cell-based, human; conditions: 96 h; for IC50: spheroids
Experimental: as §1
(§3) For growing multicellular tumor spheroids, 400 HCT116, 400 HT29 or 800 MCF-7 cells per well were plated into round-bottom ultra-low attachment 96-well plates (Corning, Glendale, AZ, USA) in the media described above and incubated at 37 °C for 96 h. Spheroids were treated with 10 µM of the two most cytotoxic compounds 3 and 4 for another 96 h. The diameters of the spheroids were measured with Cell^F software under a CKX41 Olympus microscope before treatment and in constant daily intervals over the 96 h treatment period. For statistical analysis the t-test with Welsh’s correction was implemented in GraphPad Prism software (Version 6.01).
(§4) For the resazurin assay in monolayer cultures, cells were seeded into 96-well microculture plates (CytoOne, tissue culture treated, Starlab, Hamburg, Germany) in densities of 2 × 10^3 HCT116, 2 × 10^3 HT29 and 4 × 10^3 MCF-7 cells per well (each in 100 µL). For tests in 3D cultures, spheroids were grown as described above. After 24 h (for monolayers) or 4 days (for spheroids) the test compounds in the appropriate medium were added in serial dilution to the plates to obtain a total volume of 200 µL/well. Wells without cells, containing medium and resazurin (Alfa Aesar, Thermo Fisher, Kandel, Germany) solution were used as blanks. After 96 h exposure 20 µL of the resazurin solution (440 µM) were added to each well, followed by a 4 h (2D) or 12 h (3D) incubation period. Resorufin fluorescence was quantified at 530 nm (and a reference wavelength of 620 nm) by using a microplate reader (Synergy HT, BioTek) with Gen5^TM 3.10 software (BioTek).

[5] = test system: MCF-7 multicellular tumor spheroids; assay: Resazurin assay, MCF-7 3D spheroids; type: cell-based, human; conditions: 96 h; for IC50: spheroids
Experimental: as §1, §3, §4

[6] = test system: HCT116 cells; assay: Annexin V-FITC/PI apoptosis assay, HCT116; type: cell-based, human; conditions: HCT116, 24 h, 200 µM; for ∑apoptotic cells [%]: sum of early and late
[7] = test system: HCT116, HT29 and MCF-7 cell lines; assay: ROS detection (DCFH-DA assay); type: cell-based, human; conditions: 2, 20, 100 and 200 µM, 2 h
Experimental: Reactive oxygen species (ROS) generation was measured by means of the DCFH-DA assay. […] On the following day, cells were washed with 200 µL Hanks’ balanced salt solution (HBSS, Sigma-Aldrich, containing 1% FBS) and stained with 100 µL of 25 µM DCFH-DA (2′,7′-dichlorofluorescein diacetate, Sigma-Aldrich) in HBSS (containing 1% FBS) for 45 min at 37 °C in the dark. After the incubation period, cells were washed with 200 µL HBSS (1% FBS) and loaded with compounds at concentrations of 2 µM, 20 µM, 100 µM and 200 µM in 200 µL phenol-red-free MEM (1% FBS) in triplicates. As positive controls, cells were treated with 200 µM and 400 µM tert-butylhydroperoxide (Sigma-Aldrich). Wells containing only phenol-red-free medium with 1% FBS were used as blanks, and non-drug treated, cell containing wells as reference values. Fluorescence (excitation: 485/20 nm, emission: 516/20 nm) was recorded in 10 min intervals with the Synergy HT reader (BioTek) over 2 h.

| SMILES | early apoptotic cells [%] AV+ / PI- [1] [%] | late apoptotic cells [%] AV+ / PI+ [1] [%] | necrotic cells [%] AV- / PI+ [1] [%] | viable cells [%] AV- / PI- [1] [%] | ∑apoptotic cells [%] [1] [%] | IC50 [2] [µM] | IC50 [3] [µM] | ratio 3D/2D of IC50 values, HCT116 [4] | IC50 [4] [µM] | ratio 3D/2D of IC50 values, MCF-7 [5] | IC50 [5] [µM] | early apoptotic cells [%] AV+ / PI- [6] [%] | late apoptotic cells [%] AV+ / PI+ [6] [%] | necrotic cells [%] AV- / PI+ [6] [%] | viable cells [%] AV- / PI- [6] [%] | ∑apoptotic cells [%] [6] [%] | intracellular ROS levels [7] |
| --- | --- | --- | --- | --- | --- | --- | --- | --- | --- | --- | --- | --- | --- | --- | --- | --- | --- |
| Cc1occc(=S)c1[O-].F[P-](F)(F)(F)(F)F.[W+4].c1cc[cH-]c1.c1cc[cH-]c1 [Compound 2, Bis(η^5-cyclopentadienyl)[2-methyl-3-(oxo-κO)-4-(1H)-pyran-4-thionato-κS]tungsten(IV) hexafluorophosphate] | 3.9 ± 1.8 | 6.1 ± 1.0 | 3.3 ± 2.4 | 86.8 ± 2.4 | 10 | 107 ± 30 | 24 ± 3 | 1.6 | 158 ± 28 | > 3.0 | > 200 | 7.2 ± 1.9 | 27.1 ± 17.6 | 2.2 ± 0.2 | 63.5 ± 18.6 | – | – |
| F[P-](F)(F)(F)(F)F.O=C([O-])c1ccccn1.[W+4].c1cc[cH-]c1.c1cc[cH-]c1 [Compound 5, Bis(η^5-cyclopentadienyl)[2-(carboxylato-κO)-pyridine-κN]tungsten(IV) hexafluorophosphate] | 0.9 ± 0.7 | 5.3 ± 6.9 | 2.3 ± 1.5 | – | 6.2 | – | > 200 | – | > 200 | – | > 200 | 2.0 ± 1.1 | 2.9 ± 0.7 | 2.4 ± 1.2 | 92.7 ± 1.3 | 4.9 | – |
| Cc1c([O-])c(=O)ccn1C.F[P-](F)(F)(F)(F)F.[W+4].c1cc[cH-]c1.c1cc[cH-]c1 [Compound 6, Bis(η^5-cyclopentadienyl)[1,2-dimethyl-3-(oxo-κO)-4-(1H)-pyridonato-κO]tungsten(IV) hexafluorophosphate] | 4.3 ± 1.8 | 4.2 ± 0.6 | 2.4 ± 0.7 | 89.1 ± 0.4 | 8.5 | – | > 200 | – | > 200 | – | > 200 | 5.0 ± 1.3 | 17.2 ± 122 | 3.1 ± 0.7 | 74.7 ± 14.1 | 22.2 | – |
| Cc1cc(=O)c([O-])co1.F[P-](F)(F)(F)(F)F.[W+4].c1cc[cH-]c1.c1cc[cH-]c1 [Compound 7, Bis(η^5-cyclopentadienyl)[2-methyl-5-(oxo-κO)-4-(1H)-pyran-4-ato-κO] tungsten(IV) hexafluorophosphate] | 3.0 ± 1.6 | 5.5 ± 1.9 | 3.1 ± 2.3 | 88.4 ± 3.8 | 8.5 | – | 152 ± 16 | – | > 200 | – | > 200 | 4.5 ± 1.8 | 13.7 ± 8.2 | 3.6 ± 0.9 | 78.2 ± 9.3 | 18.2 | – |
| Cc1cc(=S)c([O-])co1.F[P-](F)(F)(F)(F)F.[W+4].c1cc[cH-]c1.c1cc[cH-]c1 [Compound 8, Bis(η^5-cyclopentadienyl)[2-methyl-5-(oxo-κO)-pyran-4-(1H)-thionato-κS] tungsten(IV) hexafluorophosphate] | 3.3 ± 2.1 | 6.2 ± 4.1 | 2.1 ± 0.9 | 88.4 ± 3.6 | 9.5 | – | 93 ± 15 | – | 178 ± 14 | – | > 200 | 5.5 ± 2.0 | 12.4 ± 2.4 | 2.8 ± 1.3 | 79.4 ± 3.5 | 17.9 | – |
| CCc1occc(=O)c1[O-].F[P-](F)(F)(F)(F)F.[W+4].c1cc[cH-]c1.c1cc[cH-]c1 [Compound 9, Bis(η^5-cyclopentadienyl)[2-ethyl-3-(oxo-κO)-4-(1H)-pyran-4-ato-κO] tungsten(IV) hexafluorophosphate] | 0.9 ± 0.6 | 3.9 ± 4.5 | 2.3 ± 1.3 | 92.9 ± 5.8 | 4.8 | – | > 200 | – | > 200 | – | > 200 | 1.5 ± 0.8 | 2.3 ± 0.3 | 2.3 ± 0.4 | 93.9 ± 0.5 | 3.8 | Pronounced elevation of ROS levels |
